We go through 3 compounds from paper PMC9251005, “CT295 Is Chlamydia trachomatis’ Phosphoglucomutase and a Type 3 Secretion Substrate” (Frontiers in Cellular and Infection Microbiology, 2022).

SMILES strings stand for the structures.

Common to all, as to assay type: biochemical
The target in experiment [1] is T1, CpsG-HIS (Escherichia coli, UniProt P24175).
T1 construct: gene manB; C-terminal polyhistidine tag, E. coli BL21(DE3), Ni-NTA and Superdex 200
T1 sequence (P24175 1-456): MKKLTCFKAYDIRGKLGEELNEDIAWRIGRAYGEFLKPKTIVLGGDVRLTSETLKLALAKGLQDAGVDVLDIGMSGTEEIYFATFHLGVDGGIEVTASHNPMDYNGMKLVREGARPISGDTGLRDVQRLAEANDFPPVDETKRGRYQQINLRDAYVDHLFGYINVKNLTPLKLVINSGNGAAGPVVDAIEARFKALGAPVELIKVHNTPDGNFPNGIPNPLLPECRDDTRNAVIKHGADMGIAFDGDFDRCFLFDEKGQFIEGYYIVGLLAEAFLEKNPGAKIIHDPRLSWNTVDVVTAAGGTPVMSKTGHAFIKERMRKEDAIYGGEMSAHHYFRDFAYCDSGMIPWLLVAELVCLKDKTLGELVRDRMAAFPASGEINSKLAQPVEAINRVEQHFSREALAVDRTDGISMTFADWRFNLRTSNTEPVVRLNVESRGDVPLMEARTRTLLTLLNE
In words: HPAEC-PAD product analysis with and without cofactor. As to conditions: 0.2 mg/ml Glc1,6diP, 0.66 mg/ml Glc1P, 10 mM Tris-HCl, 0.5 mM MgSO4, pH 8.0, 37°C, 20 min.

The next experiment has as its target T2, CCA00344-HIS (Chlamydia caviae, UniProt Q823R2).
T2 construct: gene CCA_00344; C-terminal polyhistidine tag, E. coli BL21(DE3), Ni-NTA and Superdex 200
Description: HPAEC-PAD product analysis. Particulars: 0.2 mg/ml Glc1,6diP, 0.1 mg/ml enzyme, 10 mM Tris-HCl, 0.5 mM MgSO4, pH 8.0, 37°C, 20 min.

For experiment [2], the target named is T1, CpsG-HIS. In words: HPAEC-PAD product analysis. As to conditions: 0.66 mg/ml Glc1P, 0.2 mg/ml Glc1,6diP, 0.1 mg/ml enzyme, 10 mM Tris-HCl, 0.5 mM MgSO4, pH 8.0, 37°C, 20 min.
The next experiment addresses T3, CT815-HIS (Chlamydia trachomatis, UniProt O84822).
T3 construct: gene glmM; pET28a, C-terminal polyhistidine tag, E. coli BL21(DE3), Ni-NTA and Superdex 200
Description: HPAEC-PAD product analysis. Particulars: 0.66 mg/ml Glc1P, 0.2 mg/ml Glc1,6diP, 0.1 mg/ml enzyme, 10 mM Tris-HCl, 0.5 mM MgSO4, pH 8.0, 37°C, 20 min.

The target of another experiment is T4, Flag-CT295 (Chlamydia trachomatis, UniProt O84297).
T4 construct: gene mrsA_1; N-terminal Flag tag, expressed in HEK293T, immobilised on anti-Flag beads
T4 sequence (O84297 entry or part of it): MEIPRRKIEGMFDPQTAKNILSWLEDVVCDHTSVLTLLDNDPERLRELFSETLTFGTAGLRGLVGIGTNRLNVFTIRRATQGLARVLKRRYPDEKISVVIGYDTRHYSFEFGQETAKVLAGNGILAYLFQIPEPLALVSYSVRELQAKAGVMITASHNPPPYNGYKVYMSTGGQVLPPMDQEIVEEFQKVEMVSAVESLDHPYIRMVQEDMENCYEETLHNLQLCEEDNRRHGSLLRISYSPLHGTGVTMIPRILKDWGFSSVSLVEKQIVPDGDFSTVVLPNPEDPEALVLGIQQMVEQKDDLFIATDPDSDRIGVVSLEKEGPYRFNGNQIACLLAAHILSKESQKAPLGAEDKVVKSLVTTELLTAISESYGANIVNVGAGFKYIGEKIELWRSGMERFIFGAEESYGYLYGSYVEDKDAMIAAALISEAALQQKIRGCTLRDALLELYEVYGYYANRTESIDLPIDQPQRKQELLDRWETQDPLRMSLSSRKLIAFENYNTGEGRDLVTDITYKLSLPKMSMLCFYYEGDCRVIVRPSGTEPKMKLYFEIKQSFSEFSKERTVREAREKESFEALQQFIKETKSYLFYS
In words: HPAEC-PAD product analysis, enzyme on anti-Flag beads. Particulars: 0.66 mg/ml Glc1P, no Glc1,6diP, 10 mM Tris-HCl, 0.5 mM MgSO4, pH 8.0, 37°C, 20 min; immobilised enzyme.

T2 sequence (Q823R2 entry or part of it): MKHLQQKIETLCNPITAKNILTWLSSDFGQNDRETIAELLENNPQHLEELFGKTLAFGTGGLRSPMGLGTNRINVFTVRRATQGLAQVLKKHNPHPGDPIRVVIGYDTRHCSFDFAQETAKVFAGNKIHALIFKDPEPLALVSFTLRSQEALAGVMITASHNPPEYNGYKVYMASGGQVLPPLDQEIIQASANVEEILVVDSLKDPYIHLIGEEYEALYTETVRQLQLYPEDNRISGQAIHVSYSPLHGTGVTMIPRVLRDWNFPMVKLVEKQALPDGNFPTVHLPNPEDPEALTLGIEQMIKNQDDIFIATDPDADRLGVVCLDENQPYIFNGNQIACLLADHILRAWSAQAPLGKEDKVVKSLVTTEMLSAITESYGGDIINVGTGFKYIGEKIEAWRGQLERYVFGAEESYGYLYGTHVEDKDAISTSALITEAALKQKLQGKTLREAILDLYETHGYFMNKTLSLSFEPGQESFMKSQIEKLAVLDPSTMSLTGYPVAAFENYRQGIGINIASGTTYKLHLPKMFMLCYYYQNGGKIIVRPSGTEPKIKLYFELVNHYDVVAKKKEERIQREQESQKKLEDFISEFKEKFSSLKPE
T3 sequence (O84822 whole entry): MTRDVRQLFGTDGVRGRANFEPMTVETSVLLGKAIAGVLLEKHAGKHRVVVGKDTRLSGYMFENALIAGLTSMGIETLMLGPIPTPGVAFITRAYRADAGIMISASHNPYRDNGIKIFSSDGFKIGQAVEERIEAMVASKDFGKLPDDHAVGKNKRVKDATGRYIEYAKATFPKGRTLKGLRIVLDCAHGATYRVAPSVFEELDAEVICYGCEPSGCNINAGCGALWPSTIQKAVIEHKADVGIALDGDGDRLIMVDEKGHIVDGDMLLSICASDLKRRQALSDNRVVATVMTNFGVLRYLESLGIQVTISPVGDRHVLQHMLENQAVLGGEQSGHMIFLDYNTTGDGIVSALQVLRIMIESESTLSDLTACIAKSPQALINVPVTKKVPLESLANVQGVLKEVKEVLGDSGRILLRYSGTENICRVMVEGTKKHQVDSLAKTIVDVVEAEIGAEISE

As for `O=P(O)(O)OC[C@H]1O[C@H](OP(=O)(O)O)[C@H](O)[C@@H](O)[C@@H]1O` [Glc1,6diP], the “HPAEC-PAD product analysis with and without cofactor” value at CpsG-HIS [1] was “CpsG-HIS required the presence of Glc1,6diP to convert Glc1P into Glc6P”.
As for `O=P(O)(O)OC[C@H]1OC(O)[C@H](O)[C@@H](O)[C@@H]1O` (stereo partly drawn) [Glc6P], the HPAEC-PAD product analysis result on CCA00344-HIS (0.33 mg/ml Glc6P, reverse reaction) is “very low amounts of Glc1P were detected after incubation with CCA00344-HIS or CpsG-HIS”.
As to `O=P(O)(O)O[C@H]1O[C@H](CO)[C@@H](O)[C@H](O)[C@H]1O` [Glc1P], the HPAEC-PAD product analysis result on CpsG-HIS [2] was “CpsG-HIS required the presence of Glc1,6diP to convert Glc1P into Glc6P”; at CCA00344-HIS (0.66 mg/ml Glc1P), “Incubation of Glc1P in the presence of CCA00344-HIS led to its full conversion into Glc6P”; on CT815-HIS it was “only low levels of Glc6P were detected in the presence of CT815-HIS”. Also, on Flag-CT295, the “HPAEC-PAD product analysis, enzyme on anti-Flag beads” value is recorded as “These data demonstrated the ability of CT295 to convert Glc1P into Glc6P”.
